Source: the supplement of paper PMC10307832

How the values were obtained:
Test in all cases: relative viability (nuclei count vs DMSO), 5 days (fraction); higher = more cells survive
[1] = tested on: A-427
Summary of the method: (§1)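 Lung cancer cell lines were pin-tool dosed in 1536-well plates on the day after seeding, with either a lone drug or a fixed anchor-drug dose plus five library-drug doses (not always all listed) in √10 steps. Nuclei were counted on 4× images after 5 days. Relative viability is the ratio of treated-well to vehicle-well nuclei counts, with each value a median of duplicate plates.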

[2] = tested on: ABC-1
Summary of the method: as §1

[3] = tested on: BEN
Summary of the method: as §1

[4] = tested on: CAL-12T
Summary of the method: as §1

[5] = tested on: HARA
Summary of the method: as §1

[6] = tested on: LCLC-103H
Summary of the method: as §1

[7] = tested on: LOU-NH91
Summary of the method: as §1

[8] = tested on: NCI-H1651
Summary of the method: as §1

[9] = tested on: NCI-H1666
Summary of the method: as §1

[10] = tested on: NCI-H1734
Summary of the method: as §1

[11] = tested on: NCI-H1975
Summary of the method: as §1

[12] = tested on: NCI-H2085
Summary of the method: as §1

[13] = tested on: NCI-H2126
Summary of the method: as §1

[14] = tested on: NCI-H460
Summary of the method: as §1

[15] = tested on: NCI-H520
Summary of the method: as §1

[16] = tested on: NCI-H596
Summary of the method: as §1

[17] = tested on: NCI-H647
Summary of the method: as §1

[18] = tested on: NCI-H661
Summary of the method: as §1

[19] = tested on: NCI-H727
Summary of the method: as §1

[20] = tested on: NCI-H838
Summary of the method: as §1

[21] = tested on: RERF-LC-KJ
Summary of the method: as §1

[22] = tested on: NCI-H1944
Summary of the method: as §1

Compound `Nc1cccc2c1CN(C1CCC(=O)NC1=O)C2=O` (stereo unspecified) [Lenalidomide] + CC(C)C[C@H](NC(=O)[C@H](Cc1ccccc1)NC(=O)c1cnccn1)B(O)O [Bortezomib] (partner 0.002 µM) has a relative viability ([1]; first compound 0.253 µM) of 1.08, a relative viability ([1]; first compound 2.53 µM) of 0.951 and a relative viability ([1]; first compound 8 µM) of 0.908. The relative viability ([2]; first compound 0.253 µM) was 0.302, the relative viability ([2]; first compound 0.8 µM) was 0.297 and the relative viability ([2]; first compound 2.53 µM) was 0.278. For the same compound, the relative viability ([2]; first compound 8 µM) was 0.285, the relative viability ([3]; first compound 0.253 µM) was 1.04 and the relative viability ([3]; first compound 0.8 µM) was 0.505. It also gave a relative viability ([3]; first compound 2.53 µM) of 1.02, a relative viability ([3]; first compound 8 µM) of 0.524 and a relative viability ([4]; first compound 0.253 µM) of 0.988. For the same compound, the relative viability ([4]; first compound 2.53 µM) was 1.14, the relative viability ([4]; first compound 8 µM) was 0.965 and the relative viability ([5]; first compound 0.253 µM) was 1.07. It also gave a relative viability ([5]; first compound 0.8 µM) of 0.657, a relative viability ([5]; first compound 2.53 µM) of 1.24 and a relative viability ([5]; first compound 8 µM) of 1.19. The relative viability ([6]; first compound 0.253 µM) was 1.01, the relative viability ([6]; first compound 0.8 µM) was 0.966 and the relative viability ([6]; first compound 2.53 µM) was 1.01. The relative viability ([6]; first compound 8 µM) was 0.869, the relative viability ([7]; first compound 0.253 µM) was 0.478 and the relative viability ([7]; first compound 0.8 µM) was 0.433. For the same compound, the relative viability ([7]; first compound 2.53 µM) was 0.501, the relative viability ([7]; first compound 8 µM) was 0.522 and the relative viability ([8]; first compound 0.253 µM) was 0.923. The relative viability ([8]; first compound 0.8 µM) was 0.728, the relative viability ([8]; first compound 2.53 µM) was 1.05 and the relative viability ([8]; first compound 8 µM) was 0.772. It also gave a relative viability ([9]; first compound 0.253 µM) of 0.816, a relative viability ([9]; first compound 0.8 µM) of 0.544 and a relative viability ([9]; first compound 2.53 µM) of 0.813. For the same compound, the relative viability ([9]; first compound 8 µM) was 0.762, the relative viability ([10]; first compound 0.253 µM) was 0.896 and the relative viability ([10]; first compound 0.8 µM) was 0.907. It also gave a relative viability ([10]; first compound 2.53 µM) of 1.02, a relative viability ([10]; first compound 8 µM) of 0.807 and a relative viability ([11]; first compound 0.253 µM) of 0.447. The relative viability ([11]; first compound 0.8 µM) was 0.341, the relative viability ([11]; first compound 2.53 µM) was 0.412 and the relative viability ([11]; first compound 8 µM) was 0.379. For the same compound, the relative viability ([12]; first compound 0.253 µM) was 1.05, the relative viability ([12]; first compound 0.8 µM) was 0.818 and the relative viability ([12]; first compound 2.53 µM) was 1.11. The relative viability ([12]; first compound 8 µM) was 0.881, the relative viability ([13]; first compound 0.253 µM) was 1.17 and the relative viability ([13]; first compound 0.8 µM) was 0.971. The relative viability ([13]; first compound 2.53 µM) was 1.12, the relative viability ([13]; first compound 8 µM) was 1.1 and the relative viability ([14]; first compound 0.253 µM) was 1.16. The relative viability ([14]; first compound 0.8 µM) was 1.1, the relative viability ([14]; first compound 2.53 µM) was 1.7 and the relative viability ([14]; first compound 8 µM) was 1.07. The relative viability ([15]; first compound 0.253 µM) was 0.529, the relative viability ([15]; first compound 0.8 µM) was 0.933 and the relative viability ([15]; first compound 2.53 µM) was 0.984. It also gave a relative viability ([15]; first compound 8 µM) of 0.365, a relative viability ([16]; first compound 0.253 µM) of 0.933 and a relative viability ([16]; first compound 0.8 µM) of 0.733. The relative viability ([16]; first compound 2.53 µM) was 1.39, the relative viability ([16]; first compound 8 µM) was 0.883 and the relative viability ([17]; first compound 0.253 µM) was 0.88. It also gave a relative viability ([17]; first compound 0.8 µM) of 0.9, a relative viability ([17]; first compound 2.53 µM) of 1.16 and a relative viability ([17]; first compound 8 µM) of 0.772. For the same compound, the relative viability ([18]; first compound 0.253 µM) was 0.7, the relative viability ([18]; first compound 0.8 µM) was 0.75 and the relative viability ([18]; first compound 2.53 µM) was 0.794. For the same compound, the relative viability ([18]; first compound 8 µM) was 0.755, the relative viability ([19]; first compound 0.253 µM) was 0.81 and the relative viability ([19]; first compound 2.53 µM) was 1.05. For the same compound, the relative viability ([19]; first compound 8 µM) was 0.791, the relative viability ([20]; first compound 0.253 µM) was 0.801 and the relative viability ([20]; first compound 0.8 µM) was 0.887. For the same compound, the relative viability ([20]; first compound 2.53 µM) was 1.5, the relative viability ([20]; first compound 8 µM) was 0.446 and the relative viability ([21]; first compound 0.253 µM) was 1.13. The relative viability ([21]; first compound 0.8 µM) was 0.934, the relative viability ([21]; first compound 2.53 µM) was 1.09 and the relative viability ([21]; first compound 8 µM) was 0.974.
`Nc1cccc2c1CN(C1CCC(=O)NC1=O)C2=O` (stereo unspecified) [Lenalidomide] + CS(=O)(=O)CCNCc1ccc(-c2ccc3ncnc(Nc4ccc(OCc5cccc(F)c5)c(Cl)c4)c3c2)o1 [Lapatinib] (partner 2 µM) gave a relative viability ([1]; first compound 0.253 µM) of 0.983, a relative viability ([1]; first compound 2.53 µM) of 1.1 and a relative viability ([1]; first compound 8 µM) of 0.975. For the same compound, the relative viability ([2]; first compound 0.253 µM) was 1.13, the relative viability ([2]; first compound 2.53 µM) was 1.11 and the relative viability ([2]; first compound 8 µM) was 1.34. It also gave a relative viability ([3]; first compound 0.253 µM) of 0.898, a relative viability ([3]; first compound 0.8 µM) of 0.587 and a relative viability ([3]; first compound 2.53 µM) of 0.918. The relative viability ([3]; first compound 8 µM) was 0.489, the relative viability ([4]; first compound 0.253 µM) was 0.602 and the relative viability ([4]; first compound 2.53 µM) was 0.801. For the same compound, the relative viability ([4]; first compound 8 µM) was 0.403, the relative viability ([5]; first compound 0.253 µM) was 0.775 and the relative viability ([5]; first compound 0.8 µM) was 0.653. It also gave a relative viability ([5]; first compound 2.53 µM) of 0.8, a relative viability ([5]; first compound 8 µM) of 0.571 and a relative viability ([7]; first compound 0.253 µM) of 0.771. The relative viability ([7]; first compound 0.8 µM) was 0.675, the relative viability ([7]; first compound 2.53 µM) was 0.758 and the relative viability ([7]; first compound 8 µM) was 0.579. For the same compound, the relative viability ([8]; first compound 0.253 µM) was 0.825, the relative viability ([8]; first compound 0.8 µM) was 0.867 and the relative viability ([8]; first compound 2.53 µM) was 1.25. The relative viability ([8]; first compound 8 µM) was 0.88, the relative viability ([9]; first compound 0.253 µM) was 0.788 and the relative viability ([9]; first compound 0.8 µM) was 0.295. The relative viability ([9]; first compound 2.53 µM) was 0.847, the relative viability ([9]; first compound 8 µM) was 0.513 and the relative viability ([10]; first compound 0.253 µM) was 1.09. The relative viability ([10]; first compound 0.8 µM) was 1.1, the relative viability ([10]; first compound 2.53 µM) was 1.18 and the relative viability ([10]; first compound 8 µM) was 0.969. It also gave a relative viability ([22]; first compound 0.253 µM) of 0.932, a relative viability ([22]; first compound 0.8 µM) of 0.59 and a relative viability ([22]; first compound 2.53 µM) of 0.754. For the same compound, the relative viability ([22]; first compound 8 µM) was 0.602, the relative viability ([11]; first compound 0.253 µM) was 0.897 and the relative viability ([11]; first compound 0.8 µM) was 0.799. It also gave a relative viability ([11]; first compound 2.53 µM) of 1.07, a relative viability ([11]; first compound 8 µM) of 0.909 and a relative viability ([12]; first compound 0.253 µM) of 0.731. The relative viability ([12]; first compound 0.8 µM) was 0.538, the relative viability ([12]; first compound 2.53 µM) was 0.912 and the relative viability ([12]; first compound 8 µM) was 0.477. For the same compound, the relative viability ([13]; first compound 0.253 µM) was 0.743, the relative viability ([13]; first compound 0.8 µM) was 0.537 and the relative viability ([13]; first compound 2.53 µM) was 0.733. It also gave a relative viability ([13]; first compound 8 µM) of 0.584, a relative viability ([14]; first compound 0.253 µM) of 0.981 and a relative viability ([14]; first compound 0.8 µM) of 1.14. For the same compound, the relative viability ([14]; first compound 2.53 µM) was 1.66, the relative viability ([14]; first compound 8 µM) was 1.01 and the relative viability ([15]; first compound 0.253 µM) was 0.82. It also gave a relative viability ([15]; first compound 0.8 µM) of 0.929, a relative viability ([15]; first compound 2.53 µM) of 1.11 and a relative viability ([15]; first compound 8 µM) of 0.637. It also gave a relative viability ([16]; first compound 0.253 µM) of 1.14, a relative viability ([16]; first compound 0.8 µM) of 0.919 and a relative viability ([16]; first compound 2.53 µM) of 1.1. The relative viability ([16]; first compound 8 µM) was 0.995, the relative viability ([17]; first compound 0.253 µM) was 0.995 and the relative viability ([17]; first compound 0.8 µM) was 0.981. The relative viability ([17]; first compound 2.53 µM) was 1.46, the relative viability ([17]; first compound 8 µM) was 0.88 and the relative viability ([18]; first compound 0.253 µM) was 0.428. The relative viability ([18]; first compound 0.8 µM) was 0.501, the relative viability ([18]; first compound 2.53 µM) was 0.479 and the relative viability ([18]; first compound 8 µM) was 0.495. The relative viability ([19]; first compound 0.253 µM) was 0.685, the relative viability ([19]; first compound 2.53 µM) was 1 and the relative viability ([19]; first compound 8 µM) was 0.781. It also gave a relative viability ([20]; first compound 0.253 µM) of 0.807, a relative viability ([20]; first compound 0.8 µM) of 0.956 and a relative viability ([20]; first compound 2.53 µM) of 1.34. For the same compound, the relative viability ([20]; first compound 8 µM) was 0.816, the relative viability ([21]; first compound 0.253 µM) was 0.86 and the relative viability ([21]; first compound 0.8 µM) was 0.778. For the same compound, the relative viability ([21]; first compound 2.53 µM) was 0.904 and the relative viability ([21]; first compound 8 µM) was 0.757.
